From ChEMBL document CHEMBL1143562 (J Med Chem, 2005)
Activity calls are given as the source filed them. No cut-off for these calls is given here.

Tests used:
[1] = test system: Mus musculus; test: Percent protection of DBA/2 mice from audiogenically induced tonic seizures at a dose of 30 mg/kg of test compound; assay type: functional
[2] = Inhibition of [3H]leucine uptake into CHO cells by L-amino acid transporters; assay type: functional, cell-based; conditions: Cricetulus griseus
[3] = Inhibition of [3H]gabapentin binding to pig brain membranes; set-up: species or system Sus scrofa, Membrane
[4] = test system: Rattus norvegicus; test: The ability of 30 mg/kg oral dose of compound to restore punished drinking behavior in rats expressed as percent reference activity (PRA); NA-not active; assay type: functional, organism-based; set-up: dose 30 mg/kg
[5] = test system: Rattus norvegicus; test: Inhibition of carrageenan-induced thermal hyperalgesia in rats 1 hr after administration of a 30 mg/kg dose of test compound; NA-not active; assay type: functional, organism-based; set-up: dose 30 mg/kg
[6] = test system: Rattus norvegicus; test: Inhibition of carrageenan-induced thermal hyperalgesia in rats 1 hr after administration of a 30 mg/kg dose of test compound; assay type: functional
[7] = test system: Rattus norvegicus; test: The ability of 30 mg/kg oral dose of compound to restore punished drinking behavior in rats expressed as percent reference activity (PRA); assay type: functional

CC(C)C[C@H](CN)[C@H](C)C(=O)O
Protection [1]: 0%
IC50 [2]: 117 µM
IC50 [3]: > 10 µM
WLC PRA [4]: inactive

CCCC[C@@H](CC(=O)O)[C@@H](C)N
Protection [1]: 0%
IC50 [2]: > 8300 µM
IC50 [3]: 1.03 µM
CITH [5]: inactive
WLC PRA [4]: inactive

CC(C)C[C@H](CN)CC(=O)O [PREGABALIN]
Protection [1]: 100%
IC50 [2]: 158 µM
CITH [6]: 52
WLC PRA [7]: 100

CC(C)CC(C)(CN)CC(=O)O (stereo not drawn)
Protection [1]: 0%
IC50 [2]: 89 µM
CITH [5]: inactive
WLC PRA [4]: inactive

CCC[C@@H](CC(=O)O)[C@@H](C)N
Protection [1]: 0%
IC50 [2]: > 8300 µM
IC50 [3]: 1.29 µM
CITH [5]: inactive
WLC PRA [4]: inactive

CC(C)[C@H](C)[C@H](CN)CC(=O)O
Protection [1]: 20%
IC50 [2]: 28 µM
CITH [5]: inactive
WLC PRA [4]: inactive

NCC1(CC(=O)O)CCCCC1 [GABAPENTIN]
Protection [1]: 100%
IC50 [2]: 30 µM
IC50 [3]: 0.07 µM
CITH [6]: 48
WLC PRA [7]: 60

CC(C)[C@@H](C)[C@H](CN)CC(=O)O
Protection [1]: 100%
IC50 [2]: 157 µM
IC50 [3]: 0.021 µM
CITH [6]: 71
WLC PRA [7]: 152

CCC(CN)(CC(=O)O)CC(C)C (stereo not drawn)
Protection [1]: 20%
IC50 [2]: 60 µM
IC50 [3]: 8.56 µM
WLC PRA [4]: inactive

CC(C)C[C@@H](CCN)C(=O)O
Protection [1]: 0%
IC50 [2]: > 10000 µM
IC50 [3]: 2.06 µM
WLC PRA [4]: inactive

CC(C)C[C@@H](CN)CC(=O)O
Protection [1]: 0%
IC50 [2]: 355 µM
CITH [5]: inactive
WLC PRA [4]: inactive

CC(C)C[C@@H](CC(=O)O)[C@H](C)N
Protection [1]: 0%
IC50 [2]: > 10000 µM
IC50 [3]: 0.039 µM
CITH [5]: inactive
WLC PRA [4]: inactive

CCC(CC)C(CN)CC(=O)O (stereo not drawn)
Protection [1]: 20%
IC50 [2]: 146 µM
IC50 [3]: 0.203 µM
CITH [5]: inactive
WLC PRA [4]: inactive

CCC(CC)CC(CN)CC(=O)O (stereo not drawn)
Protection [1]: 0%
IC50 [2]: 142 µM
IC50 [3]: 1.33 µM
CITH [5]: inactive
WLC PRA [4]: inactive

CC(C)C[C@@H](CC(=O)O)[C@@H](C)N
Protection [1]: 0%
IC50 [2]: > 100000 µM
IC50 [3]: 0.48 µM
CITH [5]: inactive
WLC PRA [4]: inactive
